{"source": "patent US20230128137A1", "about": "“BENZO FIVE-MEMBERED CYCLIC COMPOUND” (MEDSHINE DISCOVERY INC., priority 2020, published 2023)", "key": {"[1]": {"biological_target": "T1, Bcl-2 (Homo sapiens, UniProt P10415)", "T1 construct": "Human recombinant Bcl-2 (amino acid 1-207); purchased Reaction Biology Corporation (RBC) APT-11-441; host or cells: E. coli", "T1 sequence (P10415 1-207)": "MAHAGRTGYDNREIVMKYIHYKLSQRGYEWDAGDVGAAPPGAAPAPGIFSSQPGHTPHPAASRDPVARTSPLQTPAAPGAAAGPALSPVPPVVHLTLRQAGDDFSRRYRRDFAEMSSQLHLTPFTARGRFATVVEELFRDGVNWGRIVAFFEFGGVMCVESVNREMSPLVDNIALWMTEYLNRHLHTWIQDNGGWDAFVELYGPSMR", "assay": "HTRF competition test, Bcl-2 with FAM-BAK peptide (enzymology experiment)", "format": "binding", "details": "4 nM Bcl-2 and 100 nM FAM-BAK, read-out: IC50 (nM) for inhibition of Bcl-2 enzyme", "method": "(§1) This experiment was based on the competition between fluorescently-labeled Bak/Bad/Noxa peptides and GST-labeled Bcl family proteins. The fluorescence detection method based on HTRF was to observe the binding degree by using the fluorescence ratio between Tb-labeled anti-GST and FAM-labeled peptides. This peptide binds to the surface of the Bcl family protein pocket, which is essential for its anti-apoptotic function.\n(§2) 1.1 Experimental reagents: analysis buffer: 20 mM potassium phosphate, pH 7.5, 50 mM sodium chloride, 1 mM EDTA, 0.005% Tritonx-100 and 1% DMSO.\n(§3) 1.2 Probe: 5,6-FAM-peptide\n(§4) 1.4 Experimental Conditions:\n4 nM Bcl-2 and 100 nM FAM-BAK\n(§5) a) The Bcl enzyme reaction solution was prepared in the newly prepared analysis buffer;\n(§6) b) the Bcl enzyme reaction solution was provided;\n(§7) c) the compound was first prepared into a 100% dimethyl sulfoxide solution, and then the compound solution was mixed with the Bcl enzyme reaction solution using (Echo550; nanoliter range) technology, and co-incubated for 10 minutes;\n(§8) d) the FAM peptide solution was added.\n(§9) e) the mixed solution was gently stirred in dark and room temperature, and co-cultured for 10 minutes.\n(§10) f) Anti-GST solution was added.\n(§11) g) The mixed solution was gently stirred in dark and room temperature, and co-cultured for 1 hour.\n(§12) h) The HTRF high-frequency fluorescence ratio was tested, and the IC50 values were calculated."}, "[2]": {"biological_target": "T2, Bcl-xL (Homo sapiens, UniProt Q07817)", "T2 construct": "Human recombinant Bcl-xL (amino acid 1-209); purchased Reaction Biology Corporation (RBC) APT-11-442; host or cells: E. coli", "T2 sequence (Q07817 1-209)": "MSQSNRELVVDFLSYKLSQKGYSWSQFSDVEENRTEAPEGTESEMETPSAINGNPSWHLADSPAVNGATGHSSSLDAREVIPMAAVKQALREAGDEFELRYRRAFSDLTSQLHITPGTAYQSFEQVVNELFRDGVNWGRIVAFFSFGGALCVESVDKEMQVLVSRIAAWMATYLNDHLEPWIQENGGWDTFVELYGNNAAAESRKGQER", "assay": "HTRF competition test, Bcl-xL with FAM-Bad peptide (enzymology experiment)", "format": "binding", "details": "3 nM Bcl-xL and 40 nM FAM-Bad, read-out: IC50 (nM) for inhibition of Bcl-xL enzyme", "method": "as §1, §2, §3, §4\n3 nM Bcl-xL and 40 nM FAM-Bad\nas §5, §6, §7, §8, §9, §10, §11, §12"}, "[3]": {"system": "RS4;11 cells", "assay": "CTG (CellTiter-Glo) test of inhibition of RS4;11 cell proliferation", "format": "cell-based", "details": "Homo sapiens, 72 hours incubation", "method": "2.1 Experimental objectives: To obtain the IC50 value of the test compound in RS4;11 cell lines;\n2.2 incubation time: 72 hours;\n2.3 experimental method: CTG (Cell Titer-Glo™ Luminescent Cell Viability Assay);\na. when the cells were fused to 80%, the cells were collected and counted;\nb. RS4; 11 cell suspension was diluted to 5000 cells/well and 20 uls of cell suspension was seeded in each well of 384-well plate;\nc. the cell plates were placed back to 37° C. and incubated in a 5% carbon dioxide incubator for 24 hours;\nd. the test compound was prepared into DMSO solution, and 5 μL of each was added to the designated well of the test plate, and the final concentration of DMSO solution was 0.5%;\ne. initiation cell viability was detected by CTG;\nf. the test plate was put back into the incubator and incubated for another 72 hours;\ng. after 72 hours incubation, CellTiter-Glo™ luminescent cell viability assay was completed according to the manufacturer's manual;"}, "[4]": {"assay": "Liver microsome metabolic stability in vitro, human", "format": "in vitro ADME", "details": "human liver microsomes; for Remaining (T = 60 min): 60 min incubation", "method": "(§13) 3.2 preparation of nicotinamide adenine dinucleotide phosphate cofactor solution: an appropriate amount of NADPH powder was weighed and diluted into 10 mM magnesium chloride solution (working solution concentration: 10 unit/mL; final concentration of reaction system: 1 unit/mL);\n(§14) 3.3 preparation of liver microsomes: an appropriate concentration working solution of liver microsomes (human, SD rat, CD-1 mouse, beagle dog) was prepared in 100 mM potassium phosphate buffer;\n(§15) 3.4 preparation of quenching solution: cold (4° C.) acetonitrile containing 200 ng/mL tolbutamide and 200 ng/mL labetalol as internal standard (IS) was used as quenching solution;\n(§16) 3.5 experimental operation:\n(§17) a. empty “incubation” plates T60 and NCF60 were preheated for 10 minutes;\n(§18) b. the liver microsomes were diluted to 0.56 mg/mL with 100 mM phosphate buffer;\n(§19) c. 445 μL of microsomal working solution (0.56 mg/mL) was transferred to the preheated “incubation” plates T60 and NCF60, and then the“incubation” plates T60 and NCF60 were preincubated for 10 min with continuous shaking at 37° C. 54 μL of liver microsomes were transferred to a blank plate, and 6 μL of NAPDH cofactor was added to the blank plate, and then 180 μL of quenching solution was added thereto;\n(§20) e. for NCF60 plate, 50 μL of buffer was added thereto and the mixture was fully mixed for three times. Timing was started; the plate was shaken at 37° C. for 60 minutes;\n(§21) f. in “quenching” plate TO, 180 μL of quenching solution and 6 μL of NAPDH cofactor were addded to make sure that the plate was cooled down to prevent evaporation;\n(§22) g. for T60 plates, the mixture was fully mixed for three times, and 54 μL of mixture was immediately transferred to the “quenching” plate at the 0 min time point. 44 μL of NAPDH cofactor was then added to the culture plate (T60). Timing was started; the plate was shaken at 37° C. for 60 minutes;\n(§23) h. at 5, 10, 20, 30 and 60 min, 180 μL of quenching solution was added to the “quenching” plate, and the mixture was mixed for one time, and 60 μL of sample was continuously transferred from the T60 plate to the “quenching” plate at each time point;\n(§24) i. for NCF60: the mixture was mixed for one time, and 60 μL of sample was transferred from the NCF60 culture dish to the “quenching” plate containing quenching solution at 60 minutes time point;\n(§25) j. all sampling plates were shaked for 10 minutes, then centrifuged at 4000 rpm for 20 minutes at 4° C.;\n(§26) k. 60 μL of supernatant was transferred into 180 μL of HPLC water and stirred with a plate shaker for 10 min;\n(§27) 1. before LC-MS/MS analysis, each bioanalysis plate was sealed and shaked for 10 minutes."}, "[5]": {"assay": "Liver microsome metabolic stability in vitro, SD rat", "format": "in vitro ADME", "details": "SD rat liver microsomes; for Remaining (T = 60 min): 60 min incubation", "method": "as §13, §14, §15, §16, §17, §18, §19, §20, §21, §22, §23, §24, §25, §26, §27"}, "[6]": {"assay": "Liver microsome metabolic stability in vitro, CD-1 mouse", "format": "in vitro ADME", "details": "CD-1 mouse liver microsomes; for Remaining (T = 60 min): 60 min incubation", "method": "as §13, §14, §15, §16, §17, §18, §19, §20, §21, §22, §23, §24, §25, §26, §27"}, "[7]": {"assay": "Liver microsome metabolic stability in vitro, beagle dog", "format": "in vitro ADME", "details": "beagle dog liver microsomes; for Remaining (T = 60 min): 60 min incubation", "method": "as §13, §14, §15, §16, §17, §18, §19, §20, §21, §22, §23, §24, §25, §26, §27"}}, "data": [{"smiles": "Cn1cnc2c(NCC3CCOCC3)c([N+](=O)[O-])cc(S(=O)(=O)NC(=O)c3ccc(N4CCN(CC5=C(c6ccc(Cl)cc6)CC(C)(C)CC5)CC4)cc3Oc3cnc4[nH]ccc4c3)c21", "note": "[Compound 6]", "values": [{"measurement": "IC50", "setting": "[1]", "value": 2.4, "unit": "nM"}, {"measurement": "IC50", "setting": "[2]", "value": 173, "unit": "nM"}, {"measurement": "IC50", "setting": "[3]", "value": 4.6, "unit": "nM"}]}, {"smiles": "CC1(C)CCC(CN2CCN(c3ccc(C(=O)NS(=O)(=O)c4cc([N+](=O)[O-])c(NCC5CCOCC5)c5[nH]ccc45)c(Oc4cnc5[nH]ccc5c4)c3)CC2)=C(c2ccc(Cl)cc2)C1", "note": "[Compound 1]", "values": [{"measurement": "IC50", "setting": "[3]", "value": 1.4, "unit": "nM"}]}, {"smiles": "CC1(C)CCC(CN2CCN(c3ccc(C(=O)NS(=O)(=O)c4cc([N+](=O)[O-])c(NCC5COCCO5)c5[nH]cnc45)c(Oc4cnc5[nH]ccc5c4)c3)CC2)=C(c2ccc(Cl)cc2)C1", "note": "(centres unmarked) [Compound 7]", "values": [{"measurement": "IC50", "setting": "[3]", "value": 6.8, "unit": "nM"}]}, {"smiles": "Cn1cnc2c(S(=O)(=O)NC(=O)c3ccc(N4CCN(CC5=C(c6ccc(Cl)cc6)CC(C)(C)CC5)CC4)cc3Oc3cnc4[nH]ccc4c3)cc([N+](=O)[O-])c(NCC3CCOCC3)c21", "note": "[Compound 8]", "values": [{"measurement": "IC50", "setting": "[1]", "value": 1.3, "unit": "nM"}, {"measurement": "IC50", "setting": "[2]", "value": 1110, "unit": "nM"}, {"measurement": "IC50", "setting": "[3]", "value": 6.5, "unit": "nM"}]}, {"smiles": "C[C@]12CC[C@H]3[C@@H](CCC4=CC(=O)CC[C@@]43C)[C@@H]1CC[C@@H]2O", "note": "[Testosterone]", "values": [{"measurement": "Remaining (T = 60 min)", "setting": "[4]", "value": 5.7, "unit": "%"}, {"measurement": "CLint scaled at 1 µM", "setting": "[4]; human", "value": 9.3, "unit": "L/h/kg"}, {"measurement": "half-life at 1 µM", "setting": "[4]; human", "value": 8.9, "unit": "min"}, {"measurement": "CLint scaled at 1 µM", "setting": "[5]", "value": 131, "unit": "L/h/kg"}, {"measurement": "T1/2", "setting": "[5]", "value": 1.1, "unit": "min"}, {"measurement": "Remaining (T = 60 min)", "setting": "[5]", "value": 0.0, "unit": "%"}, {"measurement": "CLint scaled at 1 µM", "setting": "[6]", "value": 82.1, "unit": "L/h/kg"}, {"measurement": "T1/2", "setting": "[6]", "value": 4.0, "unit": "min"}, {"measurement": "Remaining (T = 60 min)", "setting": "[6]", "value": 0.0, "unit": "%"}, {"measurement": "CLint scaled at 1 µM", "setting": "[7]", "value": 4.86, "unit": "L/h/kg"}, {"measurement": "T1/2", "setting": "[7]", "value": 24.6, "unit": "min"}, {"measurement": "Remaining (T = 60 min)", "setting": "[7]", "value": 19, "unit": "%"}]}, {"smiles": "Cc1nc2c(S(=O)(=O)NC(=O)c3ccc(N4CCN(CC5=C(c6ccc(Cl)cc6)CC(C)(C)CC5)CC4)cc3Oc3cnc4[nH]ccc4c3)cc([N+](=O)[O-])c(NCC3CCOCC3)c2[nH]1", "note": "[Compound 9]", "values": [{"measurement": "IC50", "setting": "[1]", "value": 3.6, "unit": "nM"}, {"measurement": "IC50", "setting": "[2]", "value": 326, "unit": "nM"}, {"measurement": "IC50", "setting": "[3]", "value": 1.9, "unit": "nM"}]}, {"smiles": "O=C(O)Cc1ccccc1Nc1c(Cl)cccc1Cl", "note": "[Diclofenac]", "values": [{"measurement": "Remaining (T = 60 min)", "setting": "[4]", "value": 0.0, "unit": "%"}, {"measurement": "CLint scaled at 1 µM", "setting": "[5]", "value": 10.4, "unit": "L/h/kg"}, {"measurement": "T1/2", "setting": "[5]", "value": 14.4, "unit": "min"}, {"measurement": "Remaining (T = 60 min)", "setting": "[5]", "value": 5.2, "unit": "%"}, {"measurement": "half-life at 1 µM", "setting": "[6]", "value": 63.5, "unit": "min"}, {"measurement": "Remaining (T = 60 min)", "setting": "[6]", "value": 53.0, "unit": "%"}, {"measurement": "CLint scaled at 1 µM", "setting": "[7]", "value": "< 0.828", "unit": "L/h/kg"}, {"measurement": "half-life at 1 µM", "setting": "[7]", "value": "> 145", "unit": "min"}, {"measurement": "Remaining (T = 60 min)", "setting": "[7]", "value": 101, "unit": "%"}]}, {"smiles": "CC1(C)CCC(CN2CC=C(c3ccc(C(=O)NS(=O)(=O)c4cc([N+](=O)[O-])c(NCC5CCOCC5)c5[nH]cnc45)c(Oc4ccc5[nH]ccc5c4)c3)CC2)=C(c2ccc(Cl)cc2)C1", "note": "[Compound 5]", "values": [{"measurement": "IC50", "setting": "[1]", "value": 2.6, "unit": "nM"}, {"measurement": "IC50", "setting": "[2]", "value": 504, "unit": "nM"}, {"measurement": "IC50", "setting": "[3]", "value": 10.2, "unit": "nM"}]}]}
